Measured values: patent publication US20210392890A1, “COMPOSITIONS COMPRISING PYRIDINE CARBOXYLATE HERBICIDES AND PLANT GROWTH REGULATORS” (Corteva Agriscience LLC, priority 2018, published 2021)
Like-named read-outs stand apart in the source and are kept apart here.

How the values were obtained:
Type in all cases: in vivo
[1] = tested on: Euphorbia heterophylla (poinsettia); assay: Greenhouse postemergence herbicidal effect on EPHHL; details: for Herbicidal Effects (% visual injury) EPHHL Obs: Ethephon 0 g/ha
Description: (§1) Seeds of the desired test plant species were planted in a 90:10% v/v (volume/volume) mixture of PRO-MIX® BX (Premier Tech Horticulture, Quakertown, Pa., USA) and PROFILE® GREENS GRADE™ (Profile Products LLC, Buffalo Grove, Ill., USA) planting mixture, which typically has a pH of 5.2 to 6.2 and an organic matter content of at least 50 percent, in plastic pots with a surface area of 103.2 square centimeters (cm^2). In some aspects, to help ensure good germination and healthy plants, a fungicide treatment and/or other chemical or physical treatment was applied. The plants were grown for 7-36 days (d) in a greenhouse with an approximate 14-hour (h) photoperiod which was maintained at about 23° C. during the day and 22° C. during the night. Nutrients and water were added on a regular basis and supplemental lighting was provided with overhead metal halide 1000-Watt lamps as necessary. The plants were employed for testing when they reached the second or third true leaf stage.
Emulsifiable concentrates of each of each pyridine carboxylate herbicide (Compound A or Compound B) were prepared at 100 grams acid equivalent per liter (g ae/L). The emulsifiable concentrates also included a safener, cloquintocet-mexyl, at 120 grams active ingredient per liter (g ai/L). An aliquot of each emulsifiable concentrate was placed in a 25 mL glass vial and diluted with an aqueous mixture of 1.25% (v/v) ACTIROB® B esterified rapeseed oil (Bayer Crop Science, Research Triangle Park, N.C., USA) or MSO® Concentrate with LECI-TECH® methylated soybean oil (Loveland Products, Loveland, Colo., USA) to obtain concentrated stock solutions at the highest application rate for each herbicide, based upon a 12 milliliter (mL) application volume at a rate of 187 liters per hectare (L/ha). The concentrated stock solutions were further diluted with an aqueous mixture of 1.25% v/v ACTIROB® B or MSO® Concentrate with LECI-TECH® to obtain stock solutions at reduced application rates for each herbicide. Spray solutions of the herbicide combinations (Compound A or Compound B plus the PGR) were prepared by adding weighed amounts or aliquots of the PGR to the stock solutions of Compound A or Compound B to form 12-mL spray solutions in two-way combinations.
The spray solutions were applied to the plant material with an overhead Mandel track sprayer equipped with 8002E nozzles calibrated to deliver 187 L/ha over an application area of 0.503 square meters (m^2) at a spray height of 18 inches (43 centimeters (cm)) above the average plant canopy. Control plants were sprayed in the same manner with the solvent blank. All pyridine carboxylate herbicide (component a) application rates are given as “g ae/ha” and all PGR (component b) application rates are given as “g ai/ha.”
(§2) The treated plants and control plants were placed in a greenhouse as described above and watered by sub-irrigation to prevent wash-off of the test compounds. After 20-22 d, the condition of the test plants as compared with that of the control plants was determined visually and scored on a scale of 0 to 100 percent where 0 corresponds to no injury and 100 corresponds to complete kill.

[2] = tested on: Cyanus segetum (cornflower); assay: Greenhouse postemergence herbicidal effect on CENCY
Description: as §1
(§3) Emulsifiable concentrates of each of each pyridine carboxylate herbicide (Compound A or Compound B) were prepared at 100 grams acid equivalent per liter (g ae/L). The emulsifiable concentrates also included a safener, cloquintocet-mexyl, at 120 grams active ingredient per liter (g ai/L). […]
as §2

[3] = tested on: Papaver rhoeas (common poppy); assay: Greenhouse postemergence herbicidal effect on PAPRH
Description: as §1, §3, §2

[4] = tested on: Sinapis arvensis (wild mustard); assay: Greenhouse postemergence herbicidal effect on SINAR
Description: as §1, §3, §2

[5] = tested on: rice (ORYSA); details: Ethephon 0 g/ha
Description: as §1, §3
as §2, with “kill. […]” for “kill.”

`N#CCOC(=O)c1nc(-c2ccc3cc[nH]c3c2F)c(F)c(N)c1Cl` [Compound A, cyanomethyl 4-amino-3-chloro-5-fluoro-6-(7-fluoro-1H-indol-6-yl)pyridine-2-carboxylate] was tested, and the “Herbicidal Effects (% visual injury) EPHHL Obs” value ([1]; Compound A 7.5 g/ha) was 100%, the “Herbicidal Effects (% visual injury) EPHHL Obs” value ([1]; Compound A 10 g/ha) was 100% and the “% visual injury Obs” value ([1]; herbicide 7.5 g ae/ha alone) was 91%. The “% visual injury Obs” value ([1]; herbicide 10 g ae/ha alone) was 83%, the “% visual injury Obs” value ([2]; herbicide 7.5 g ae/ha alone) was 75% and the “% visual injury Obs” value ([2]; herbicide 10 g ae/ha alone) was 78%. The “% visual injury Obs” value ([2]; herbicide 15 g ae/ha alone) was 80%, the “% visual injury Obs” value ([3]; herbicide 7.5 g ae/ha alone) was 100% and the “% visual injury Obs” value ([3]; herbicide 10 g ae/ha alone) was 99%. For the same compound, the “% visual injury Obs” value ([3]; herbicide 15 g ae/ha alone) was 100%, the “% visual injury Obs” value ([4]; herbicide 7.5 g ae/ha alone) was 88% and the “% visual injury Obs” value ([4]; herbicide 10 g ae/ha alone) was 91%. The “% visual injury Obs” value ([4]; herbicide 15 g ae/ha alone) was 91%, the “Herbicidal Effects (% visual injury) ORYSA Obs” value ([5]; Compound A 7.5 g/ha) was 15% and the “Herbicidal Effects (% visual injury) ORYSA Obs” value ([5]; Compound A 10 g/ha) was 18%.
